# Source: ChEMBL document CHEMBL1159340, “Antibacterial diterpenes from Calceolaria pinifolia” (J Nat Prod, 2003)
# How the values were obtained:
# Bacillus subtilis [1] = assay: Inhibition of DNA synthesis in Bacillus subtilis assessed as [3H]thymidine uptake at 8 ug/mL by LKB Betaplate scintillation counter relative to control; format: functional; design: scale not given: the % may be the effect or the level left
# Bacillus subtilis [2] = assay: Inhibition of RNA synthesis in Bacillus subtilis assessed as incorporation of [3H]uridine at 4 ug/mL by LKB Betaplate scintillation counter relative to control; format: functional; design: scale not given: the % may be the effect or the level left
# Bacillus subtilis [3] = assay: Antimicrobial activity against Bacillus subtilis 327 after 18 hrs by microbroth dilution method; format: functional
# Staphylococcus aureus [4] = assay: Antimicrobial activity against methicillin-susceptible Staphylococcus aureus 375 after 18 hrs by microbroth dilution method; format: functional
# Staphylococcus aureus [5] = assay: Antimicrobial activity against methicillin-resistant Staphylococcus aureus 310 after 18 hrs by microbroth dilution method; format: functional
# Escherichia coli = assay: Antimicrobial activity against Escherichia coli imp 389 after 18 hrs by microbroth dilution method; format: functional
# Bacillus subtilis [6] = assay: Inhibition of protein synthesis in Bacillus subtilis assessed as [3H]amino acid uptake at 4 ug/mL by LKB Betaplate scintillation counter relative to control; format: functional; design: scale not given: the % may be the effect or the level left
# Bacillus subtilis [7] = assay: Inhibition of protein synthesis in Bacillus subtilis assessed as incorporation of [3H]amino acid at 4 ug/mL by LKB Betaplate scintillation counter relative to control; format: functional; design: scale not given: the % may be the effect or the level left
# Bacillus subtilis [8] = assay: Inhibition of DNA synthesis in Bacillus subtilis assessed as [3H]thymidine uptake at 2 ug/mL by LKB Betaplate scintillation counter relative to control; format: functional; design: scale not given: the % may be the effect or the level left
# Bacillus subtilis [9] = assay: Inhibition of DNA synthesis in Bacillus subtilis assessed as incorporation of [3H]thymidine at 2 ug/mL by LKB Betaplate scintillation counter relative to control; format: functional; design: scale not given: the % may be the effect or the level left
# Staphylococcus aureus [10] = assay: Antimicrobial activity against Staphylococcus aureus infected in CD1 mouse administered subcutaneously after 30 mins infection measured after 7 days; format: functional; conditions: sc
# Bacillus subtilis [11] = assay: Inhibition of RNA synthesis in Bacillus subtilis assessed as [3H]uridine uptake at 2 ug/mL by LKB Betaplate scintillation counter relative to control; format: functional; design: scale not given: the % may be the effect or the level left
# Bacillus subtilis [12] = assay: Inhibition of RNA synthesis in Bacillus subtilis assessed as incorporation of [3H]uridine at 2 ug/mL by LKB Betaplate scintillation counter relative to control; format: functional; design: scale not given: the % may be the effect or the level left
# Bacillus subtilis [13] = assay: Inhibition of protein synthesis in Bacillus subtilis assessed as [3H]amino acid uptake at 2 ug/mL by LKB Betaplate scintillation counter relative to control; format: functional; design: scale not given: the % may be the effect or the level left
# Bacillus subtilis [14] = assay: Inhibition of protein synthesis in Bacillus subtilis assessed as incorporation of [3H]amino acid at 2 ug/mL by LKB Betaplate scintillation counter relative to control; format: functional; design: scale not given: the % may be the effect or the level left
# Bacillus subtilis [15] = assay: Inhibition of DNA synthesis in Bacillus subtilis assessed as [3H]thymidine uptake at 1 ug/mL by LKB Betaplate scintillation counter relative to control; format: functional; design: scale not given: the % may be the effect or the level left
# Bacillus subtilis [16] = assay: Inhibition of DNA synthesis in Bacillus subtilis assessed as incorporation of [3H]thymidine at 1 ug/mL by LKB Betaplate scintillation counter relative to control; format: functional; design: scale not given: the % may be the effect or the level left
# Bacillus subtilis [17] = assay: Inhibition of RNA synthesis in Bacillus subtilis assessed as [3H]uridine uptake at 1 ug/mL by LKB Betaplate scintillation counter relative to control; format: functional; design: scale not given: the % may be the effect or the level left
# Bacillus subtilis [18] = assay: Inhibition of RNA synthesis in Bacillus subtilis assessed as incorporation of [3H]uridine at 1 ug/mL by LKB Betaplate scintillation counter relative to control; format: functional; design: scale not given: the % may be the effect or the level left
# Bacillus subtilis [19] = assay: Inhibition of protein synthesis in Bacillus subtilis assessed as [3H]amino acid uptake at 1 ug/mL by LKB Betaplate scintillation counter relative to control; format: functional; design: scale not given: the % may be the effect or the level left
# Bacillus subtilis [20] = assay: Inhibition of protein synthesis in Bacillus subtilis assessed as incorporation of [3H]amino acid at 1 ug/mL by LKB Betaplate scintillation counter relative to control; format: functional; design: scale not given: the % may be the effect or the level left
# [21] = Toxicity in human RBC assessed as hemolysis at 128 ug/ml after 2 hrs; format: cell-based, Erythrocyte; conditions: red blood cells (RBC), read-out: Activity
# [22] = Toxicity in human RBC assessed as hemolysis at 64 ug/ml after 2 hrs; format: cell-based, Erythrocyte; conditions: red blood cells (RBC), read-out: Activity
# [23] = Toxicity in human RBC assessed as hemolysis at 32 ug/ml after 2 hrs; format: cell-based, Erythrocyte; conditions: red blood cells (RBC), read-out: Activity
# [24] = Toxicity in human RBC assessed as hemolysis at 16 ug/ml after 2 hrs; format: cell-based, Erythrocyte; conditions: red blood cells (RBC), read-out: Activity
# [25] = Toxicity in human RBC assessed as hemolysis at 8 ug/ml after 2 hrs; format: cell-based, Erythrocyte; conditions: red blood cells (RBC), read-out: Activity
# [26] = Toxicity in human RBC assessed as hemolysis at 4 ug/ml after 2 hrs; format: cell-based, Erythrocyte; conditions: red blood cells (RBC), read-out: Activity
# [27] = Toxicity in human RBC assessed as hemolysis at 2 ug/ml after 2 hrs; format: cell-based, Erythrocyte; conditions: red blood cells (RBC), read-out: Activity
# [28] = Toxicity in human RBC assessed as hemolysis at 1 ug/ml after 2 hrs; format: cell-based, Erythrocyte; conditions: red blood cells (RBC), read-out: Activity
# [29] = Toxicity in human RBC assessed as hemolysis at 0.5 ug/ml after 2 hrs; format: cell-based, Erythrocyte; conditions: red blood cells (RBC), read-out: Activity
# Bacillus subtilis [30] = assay: Inhibition of RNA synthesis in Bacillus subtilis assessed as [3H]uridine uptake at 4 ug/mL by LKB Betaplate scintillation counter relative to control; format: functional; design: scale not given: the % may be the effect or the level left
# Bacillus subtilis [31] = assay: Inhibition of DNA synthesis in Bacillus subtilis assessed as incorporation of [3H]thymidine at 4 ug/mL by LKB Betaplate scintillation counter relative to control; format: functional; design: scale not given: the % may be the effect or the level left
# Bacillus subtilis [32] = assay: Inhibition of DNA synthesis in Bacillus subtilis assessed as [3H]thymidine uptake at 4 ug/mL by LKB Betaplate scintillation counter relative to control; format: functional; design: scale not given: the % may be the effect or the level left
# Bacillus subtilis [33] = assay: Inhibition of protein synthesis in Bacillus subtilis assessed as incorporation of [3H]amino acid at 8 ug/mL by LKB Betaplate scintillation counter relative to control; format: functional; design: scale not given: the % may be the effect or the level left
# Bacillus subtilis [34] = assay: Inhibition of protein synthesis in Bacillus subtilis assessed as [3H]amino acid uptake at 8 ug/mL by LKB Betaplate scintillation counter relative to control; format: functional; design: scale not given: the % may be the effect or the level left
# Bacillus subtilis [35] = assay: Inhibition of RNA synthesis in Bacillus subtilis assessed as incorporation of [3H]uridine at 8 ug/mL by LKB Betaplate scintillation counter relative to control; format: functional; design: scale not given: the % may be the effect or the level left
# Bacillus subtilis [36] = assay: Inhibition of RNA synthesis in Bacillus subtilis assessed as [3H]uridine uptake at 8 ug/mL by LKB Betaplate scintillation counter relative to control; format: functional; design: scale not given: the % may be the effect or the level left
# Bacillus subtilis [37] = assay: Inhibition of DNA synthesis in Bacillus subtilis assessed as incorporation of [3H]thymidine at 8 ug/mL by LKB Betaplate scintillation counter relative to control; format: functional; design: scale not given: the % may be the effect or the level left
# [38] = Ratio of LD50 for CD1 mouse to ED50 for Staphylococcus aureus
# Bacillus subtilis [39] = assay: Inhibition of DNA synthesis in Bacillus subtilis assessed as [3H]thymidine uptake at 0.25 ug/mL by LKB Betaplate scintillation counter relative to control; format: functional; design: scale not given: the % may be the effect or the level left
# Bacillus subtilis [40] = assay: Inhibition of DNA synthesis in Bacillus subtilis assessed as incorporation of [3H]thymidine at 0.25 ug/mL by LKB Betaplate scintillation counter relative to control; format: functional; design: scale not given: the % may be the effect or the level left
# Bacillus subtilis [41] = assay: Inhibition of RNA synthesis in Bacillus subtilis assessed as [3H]uridine uptake at 0.25 ug/mL by LKB Betaplate scintillation counter relative to control; format: functional; design: scale not given: the % may be the effect or the level left
# Bacillus subtilis [42] = assay: Inhibition of RNA synthesis in Bacillus subtilis assessed as incorporation of [3H]uridine at 0.25 ug/mL by LKB Betaplate scintillation counter relative to control; format: functional; design: scale not given: the % may be the effect or the level left
# Bacillus subtilis [43] = assay: Inhibition of protein synthesis in Bacillus subtilis assessed as [3H]amino acid uptake at 0.25 ug/mL by LKB Betaplate scintillation counter relative to control; format: functional; design: scale not given: the % may be the effect or the level left
# Bacillus subtilis [44] = assay: Inhibition of protein synthesis in Bacillus subtilis assessed as incorporation of [3H]amino acid at 0.25 ug/mL by LKB Betaplate scintillation counter relative to control; format: functional; design: scale not given: the % may be the effect or the level left
smiles,measurement,setting,value
C=C[C@]1(C)CC=C2C(CC[C@@H]3[C@](C)(CO)CCC[C@@]23C)C1 (stereo not given in full),Activity,Bacillus subtilis [1],1%
same,Activity,Bacillus subtilis [2],0%
same,MIC,Bacillus subtilis [3],4 µg/mL
same,MIC,Staphylococcus aureus [4],2 µg/mL
same,MIC,Staphylococcus aureus [5],2 µg/mL
same,MIC,Escherichia coli,> 128 µg/mL
same,Activity,Bacillus subtilis [6],1%
same,Activity,Bacillus subtilis [7],2%
same,Activity,Bacillus subtilis [8],2%
same,Activity,Bacillus subtilis [9],2%
same,ED50,Staphylococcus aureus [10],> 64 mg/kg
same,Activity,Bacillus subtilis [11],1%
same,Activity,Bacillus subtilis [12],1%
same,Activity,Bacillus subtilis [13],1%
same,Activity,Bacillus subtilis [14],4%
same,Activity,Bacillus subtilis [15],13%
same,Activity,Bacillus subtilis [16],20%
same,Activity,Bacillus subtilis [17],1%
same,Activity,Bacillus subtilis [18],2%
same,Activity,Bacillus subtilis [19],2%
same,Activity,Bacillus subtilis [20],36%
same,"hemolysis at 2 h, 128 ug/ml",[21],88.1%
same,"hemolysis at 2 h, 64 ug/ml",[22],80.2%
same,"hemolysis at 2 h, 32 ug/ml",[23],71.7%
same,"hemolysis at 2 h, 16 ug/ml",[24],14.8%
same,"hemolysis at 2 h, 8 ug/ml",[25],3.32%
same,"hemolysis at 2 h, 4 ug/ml",[26],0.3%
same,"hemolysis at 2 h, 2 ug/ml",[27],0.45%
same,"hemolysis at 2 h, 1 ug/ml",[28],0.08%
same,"hemolysis at 2 h, 0.5 ug/ml",[29],0.3%
same,Activity,Bacillus subtilis [30],0%
same,Activity,Bacillus subtilis [31],1%
same,Activity,Bacillus subtilis [32],1%
same,Activity,Bacillus subtilis [33],2%
same,Activity,Bacillus subtilis [34],1%
same,Activity,Bacillus subtilis [35],0%
same,Activity,Bacillus subtilis [36],0%
same,Activity,Bacillus subtilis [37],1%
CN[C@H](CC(C)C)C(=O)N[C@H]1C(=O)N[C@@H](CC(N)=O)C(=O)N[C@H]2C(=O)N[C@H]3C(=O)N[C@H](C(=O)N[C@H](C(=O)O)c4cc(O)cc(O)c4-c4cc3ccc4O)[C@H](O)c3ccc(c(Cl)c3)Oc3cc2cc(c3O[C@@H]2O[C@H](CO)[C@@H](O)[C@H](O)[C@H]2O[C@H]2C[C@](C)(N)[C@H](O)[C@H](C)O2)Oc2ccc(cc2Cl)[C@H]1O [VANCOMYCIN],ED50,Staphylococcus aureus [10],1 mg/kg
same,Ratio LD50/ED50,[38],> 1024
CO[C@H]1/C=C/O[C@@]2(C)Oc3c(C)c(O)c4c(O)c(c(/C=N/N5CCN(C)CC5)c(O)c4c3C2=O)NC(=O)/C(C)=C\C=C\[C@H](C)[C@H](O)[C@@H](C)[C@@H](O)[C@@H](C)[C@H](OC(C)=O)[C@@H]1C [RIFAMPIN],Activity,Bacillus subtilis [39],94%
same,Activity,Bacillus subtilis [40],108%
same,Activity,Bacillus subtilis [41],143%
same,Activity,Bacillus subtilis [42],29%
same,Activity,Bacillus subtilis [43],90%
same,Activity,Bacillus subtilis [44],25%
CC1(C)CC[C@]2(C(=O)O)CC[C@]3(C)C(=CC[C@@H]4[C@@]5(C)CC[C@@H](O)C(C)(C)[C@@H]5CC[C@]43C)[C@@H]2C1,MIC,Bacillus subtilis [3],64 µg/mL
same,MIC,Staphylococcus aureus [4],> 128 µg/mL
same,MIC,Escherichia coli,> 128 µg/mL
C[C@@H]1[C@H](O)[C@@H](C)/C=C/C=C/C=C/C=C/C=C/C=C/C=C/[C@H](O[C@@H]2O[C@H](C)[C@@H](O)[C@H](N)[C@@H]2O)C[C@@H]2O[C@](O)(C[C@@H](O)C[C@@H](O)[C@H](O)CC[C@@H](O)C[C@@H](O)CC(=O)O[C@H]1C)C[C@H](O)[C@H]2C(=O)O [AMPHOTERICIN B],"hemolysis at 2 h, 16 ug/ml",[24],118%
same,"hemolysis at 2 h, 8 ug/ml",[25],96.9%
same,"hemolysis at 2 h, 4 ug/ml",[26],74.6%
same,"hemolysis at 2 h, 2 ug/ml",[27],27.5%
same,"hemolysis at 2 h, 1 ug/ml",[28],9.7%
same,"hemolysis at 2 h, 0.5 ug/ml",[29],0%
CC1(C)S[C@@H]2[C@H](NC(=O)Cc3ccccc3)C(=O)N2[C@H]1C(=O)O [PENICILLIN G],MIC,Bacillus subtilis [3],0.03 µg/mL
same,MIC,Staphylococcus aureus [4],0.03 µg/mL
same,MIC,Staphylococcus aureus [5],128 µg/mL
same,MIC,Escherichia coli,1 µg/mL
O=C(N[C@H](CO)[C@H](O)c1ccc([N+](=O)[O-])cc1)C(Cl)Cl [CHLORAMPHENICOL],Activity,Bacillus subtilis [1],74%
same,Activity,Bacillus subtilis [33],10%
same,Activity,Bacillus subtilis [34],83%
same,Activity,Bacillus subtilis [35],166%
same,Activity,Bacillus subtilis [36],141%
same,Activity,Bacillus subtilis [37],80%
